Test results reported in patent publication US20160101072A1, “Therapeutic uses of enzyme inhibitors” (Proximagen Limited, priority 2013, published 2016).
Marks after values point to notes of the source that are not given here.

Experiments:
[1] = tested on: CD11b+ myeloid cells; experiment: Cell sorting: recruitment of CD11b+ myeloid cells into muscles of mdx mice; format: in vivo, mouse; settings: mdx mice muscle; for % change compared to vehicle (CD11b+ myeloid cells) / % of viable cells (CD11b+ myeloid cells): 4 weeks
From the text: (§1) In this example, labelled antibodies were used to assess infiltration of inflammatory myeloid and lymphoid cells into muscles of mdx mice following treatment of the mice with different doses of the glucocorticoid prednisolone, and the VAP-1 inhibitors carbidopa and benserazide. CD11b is a transmembrane glycoprotein which is expressed on the surface of granulocytes (including neutrophils and eosinophils), monocytes, NK cells, dendritic cells, tissue macrophages and subsets of T and B cells. Labelled antibody to CD11b was used to assess infiltration of inflammatory myeloid cells into muscles of mdx mice. Labelled antibody to Ly6C was used to assess infiltration of pro- and anti-inflammatory monocytes into muscles of mdx mice. Labelled antibody to CD4 and CD8a antigen was used to assess infiltration of Th cells (CD4^+CD8^-) and double negative (CD4^-CD8^-) T cells into muscles of mdx mice. A total of a ninety C57BU10ScSn-Dmdmdx/J male mice, 3 weeks of age (+/-3days), were transferred to the in vivo research laboratory in Bar Harbor, Me. Additional ten […] male mice 3 weeks of age (+/-3 days) were also transferred and served as a wild-type control group. The mice were ear notched for identification and housed in ventilated polysulfone cages with HEPA filtered air at a density of 3-4 mice per cage. The animal room was lit entirely with artificial fluorescent lighting on controlled 12 hour light/dark cycle (6 a.m. to 6 p.m. light). […] The animal room was set for 15 air exchanges per hour. Filtered tap water acidified to a pH of 2.8 to 3.2 was provided ad libitum. […] Prior to study initiation, mice were acclimated for 3 days. Mice were tested for grip strength and in the open field at ages 25 and 26 days, and drug regimen was initiated at age 27 days. Mice were monitored twice weekly for clinical observations and body weights. […] 24 hours after the second open field tests, blood was collected by retro-orbital bleeding, and mice were humanely euthanized by CO2 asphyxiation. One triceps surae was collected fresh and processed for immune cell sorting, one tibialis anterior was preserved in RNALater for RNA extraction, one whole hind limb and the diaphragm were fixed in 2% paraformaldehyde overnight at 4° C. for paraffin embedding and histology stains. For immune cell sorting, muscle samples were enzymatically and mechanically dissociated following manufacturer instructions (Skeletal Muscle Dissociation KitCatalog no. 130-098-305, Miltenyi Biotec). Cells were stained with the following antibodies: [table] Stained cells were analyzed on a BD LSR II cytometer and counts of different populations were expressed in percentage of the number of live cells counted.

[2] = tested on: CD11b+Ly6Chigh profibrotic myeloid cells (Ly6C+ monocytes); experiment: Cell sorting: recruitment of CD11b+Ly6Chigh profibrotic myeloid cells into muscles of mdx mice; format: in vivo, mouse; settings: mdx mice muscle; for % change compared to vehicle (CD11b+Ly6Chigh profibrotic myeloid cells) / % of viable cells (CD11b+Ly6Chigh profibrotic myeloid cells): 4 weeks
From the text: as §1

[3] = tested on: CD11b+Ly6Clow anti-fibrotic myeloid cells (Ly6C- monocytes); experiment: Cell sorting: recruitment of CD11b+Ly6Clow anti-fibrotic myeloid cells into muscles of mdx mice; format: in vivo, mouse; settings: mdx mice muscle; for % change compared to vehicle (CD11b+Ly6Clow anti-fibrotic myeloid cells) / % of viable cells (CD11b+Ly6Clow anti-fibrotic myeloid cells): 4 weeks
From the text: as §1

[4] = tested on: CD11b+Ly6Chigh profibrotic : CD11b+Ly6Clow anti-fibrotic myeloid cells; experiment: Ratio of profibrotic to anti-fibrotic myeloid cells in mdx mouse muscle; format: in vivo; settings: both doses
From the text: In this example, labelled antibodies were used to assess infiltration of inflammatory myeloid and lymphoid cells into muscles of mdx mice following treatment of the mice with different doses of the glucocorticoid prednisolone, and the VAP-1 inhibitors carbidopa and benserazide. […] Labelled antibody to CD11b was used to assess infiltration of inflammatory myeloid cells into muscles of mdx mice. Labelled antibody to Ly6C was used to assess infiltration of pro- and anti-inflammatory monocytes into muscles of mdx mice. Labelled antibody to CD4 and CD8a antigen was used to assess infiltration of Th cells (CD4^+CD8^−) and double negative (CD4^−CD8^−) T cells into muscles of mdx mice.
A total of a ninety C57BU10ScSn-Dmdmdx/J male mice, 3 weeks of age (+/−3days), were transferred to the in vivo research laboratory in Bar Harbor, Me. Additional ten C57BU10ScSnJ male mice 3 weeks of age (+/−3 days) were also transferred and served as a wild-type control group. The mice were ear notched for identification and housed in ventilated polysulfone cages with HEPA filtered air at a density of 3-4 mice per cage. […]

[5] = tested on: lymphoid CD4+CD8- T cells; experiment: Cell sorting: recruitment of lymphoid CD4+CD8- T cells into muscles of mdx mice; format: in vivo, mouse; settings: mdx mice muscle
From the text: as §1

[6] = tested on: lymphoid CD4-CD8- (double negative, DN) T cells; experiment: Cell sorting: recruitment of lymphoid CD4-CD8- (double negative, DN) T cells into muscles of mdx mice; format: in vivo, mouse; settings: mdx mice muscle
From the text: as §1

[7] = tested on: TNF mRNA; experiment: mRNA quantification (RT PCR) of TNF in muscles of mdx mice; format: in vivo, mouse; settings: for TNF mRNA level: mdx mice muscle, GAPDH as normalizer; for effect on the level of TNF mRNA: treatment alone, mdx mouse muscle
From the text: (§2) A total of a ninety C57BU10ScSn-Dmdmdx/J male mice, 3 weeks of age (+/-3days), were transferred to the in vivo research laboratory in Bar Harbor, Me. Additional ten […] male mice 3 weeks of age (+/-3 days) were also transferred and served as a wild-type control group. The mice were ear notched for identification and housed in ventilated polysulfone cages with HEPA filtered air at a density of 3-4 mice per cage. The animal room was lit entirely with artificial fluorescent lighting on controlled 12 hour light/dark cycle (6 a.m. to 6 p.m. light). […] The animal room was set for 15 air exchanges per hour. Filtered tap water acidified to a pH of 2.8 to 3.2 was provided ad libitum. […] Prior to study initiation, mice were acclimated for 3 days. Mice were tested for grip strength and in the open field at ages 25 and 26 days, and drug regimen was initiated at age 27 days. Mice were monitored twice weekly for clinical observations and body weights. […] 24 hours after the second open field tests, blood was collected by retro-orbital bleeding, and mice were humanely euthanized by CO2 asphyxiation. One triceps surae was collected fresh and processed for immune cell sorting, one tibialis anterior was preserved in RNALater for RNA extraction, one whole hind limb and the diaphragm were fixed in 2% paraformaldehyde overnight at 4° C. for paraffin embedding and histology stains. Total RNAs were extracted with a modification of the Trizol method, reverse transcribed, and mRNAs of TGFβ, and the following inflammation markers were quantified by the SYBR green method with GAPDH as a normalizer: […]

[8] = tested on: Lgals3 mRNA; experiment: mRNA quantification (RT PCR) of Lgals3 in muscles of mdx mice; format: in vivo, mouse; settings: for Lgals3 mRNA level: mdx mice muscle, GAPDH as normalizer; for effect on the level of Lgals3 mRNA: treatment alone, mdx mouse muscle
From the text: as §2

[9] = tested on: CD53 mRNA; experiment: mRNA quantification (RT PCR) of CD53 in muscles of mdx mice; format: in vivo, mouse; settings: for CD53 mRNA level: mdx mice muscle, GAPDH as normalizer
From the text: as §2

[10] = tested on: CD48 mRNA; experiment: mRNA quantification (RT PCR) of CD48 in muscles of mdx mice; format: in vivo, mouse; settings: for CD48 mRNA level: mdx mice muscle, GAPDH as normalizer; for effect on the level of CD48 mRNA: treatment alone, mdx mouse muscle
From the text: as §2

[11] = tested on: CD11b mRNA; experiment: mRNA quantification (RT PCR) of CD11b in muscles of mdx mice; format: in vivo, mouse; settings: for CD11b mRNA level: mdx mice muscle, GAPDH as normalizer
From the text: as §2

[12] = tested on: TGFβ mRNA; experiment: mRNA quantification (RT PCR) of pro-fibrotic growth factor TGFβ in muscles of mdx mice; format: in vivo, mouse; settings: for % change compared to vehicle (TGFβ mRNA) / TGFβ mRNA: mdx mice muscle; for TGFβ mRNA: GAPDH as normalizer
From the text: as §2

[13] = tested on: IL-6 mRNA; experiment: mRNA quantification (RT PCR) of IL-6 in muscles of mdx mice; format: in vivo, mouse; settings: mdx mice muscle
From the text: as §2

[14] = tested on: Mpeg1 mRNA; experiment: mRNA quantification (RT PCR) of Mpeg1 in muscles of mdx mice; format: in vivo, mouse; settings: mdx mice muscle
From the text: as §2

[15] = tested on: Ly6C1 mRNA; experiment: mRNA quantification (RT PCR) of Ly6C1 in muscles of mdx mice; format: in vivo, mouse; settings: mdx mice muscle
From the text: as §2

[16] = 100 mg/kg po twice/day, 4 weeks
[17] = doses as in the table (carbidopa 100, benserazide 20 mg/kg po twice/day; prednisolone 1 mg/kg ip once/day)
[18] = mdx mouse muscle, compared to vehicle
[19] = treatment alone, mdx mouse muscle

## C[C@@](Cc1ccc(O)c(O)c1)(NN)C(=O)O [Carbidopa]
[1]; 50 mg/kg po twice/day
  % change compared to vehicle (CD11b+ myeloid cells): −55.2%
  % of viable cells (CD11b+ myeloid cells): 16.3** %
[1]; 100 mg/kg po twice/day
  % change compared to vehicle (CD11b+ myeloid cells): −49.2%
  % of viable cells (CD11b+ myeloid cells): 18.5** %
[1]; both carbidopa doses (columns 5 and 6 of FIG. 4)
  reduction of myeloid cell recruitment compared with vehicle: approximately 50%
[2]; 50 mg/kg po twice/day
  % change compared to vehicle (CD11b+Ly6Chigh profibrotic myeloid cells): −86.4%
  % of viable cells (CD11b+Ly6Chigh profibrotic myeloid cells): 1.75** %
[2]; 100 mg/kg po twice/day
  % change compared to vehicle (CD11b+Ly6Chigh profibrotic myeloid cells): −82.1%
  % of viable cells (CD11b+Ly6Chigh profibrotic myeloid cells): 1.31** %
[2]; at both doses tested
  reduction of profibrotic myeloid cell recruitment compared with vehicle: over 80%
[3]; 50 mg/kg po twice/day
  % change compared to vehicle (CD11b+Ly6Clow anti-fibrotic myeloid cells): −49.3%
  % of viable cells (CD11b+Ly6Clow anti-fibrotic myeloid cells): 13.8** %
[3]; 100 mg/kg po twice/day
  % change compared to vehicle (CD11b+Ly6Clow anti-fibrotic myeloid cells): −41.2%
  % of viable cells (CD11b+Ly6Clow anti-fibrotic myeloid cells): 16** %
[3]; both carbidopa doses (columns 5, 6 of FIG. 5B)
  inhibition of recruitment of anti-fibrotic myeloid cells compared with vehicle: less than 50%
[4]
  relative levels of pro- and anti-fibrotic myeloid cells: in favour of anti-fibrotic myeloid cells
[5]; [16]
  % change compared to vehicle (lymphoid CD4+CD8- T cells): −51.4%
  % of viable cells (lymphoid CD4+CD8- T cells): 7.1** %
[5]; [17]
  reduction of recruitment of lymphoid CD4+CD8- T cells compared with vehicle: over 33.3%
[6]; [16]
  % change compared to vehicle (lymphoid CD4-CD8- DN T cells): −56.4%
  % of viable cells (lymphoid CD4-CD8- DN T cells): 14.2** %
[6]; [17]
  reduction of recruitment of lymphoid DN T cells compared with vehicle: ~50%
[7]; 50 mg/kg po twice/day
  TNF mRNA level: 0.74
[7]
  effect on the level of TNF mRNA: No significant effect
[8]; 50 mg/kg po twice/day
  Lgals3 mRNA level: 0.66
[8]
  effect on the level of Lgals3 mRNA: no significant effect
[9]; 50 mg/kg po twice/day
  CD53 mRNA level: 0.46**
[9]; [18]
  reduction of the level of CD53 mRNA: 52.6%
[10]; 50 mg/kg po twice/day
  CD48 mRNA level: 0.86
[10]
  effect on the level of CD48 mRNA: no significant effect
[11]; 50 mg/kg po twice/day
  CD11b mRNA level: 0.58*
[11]; [18]
  reduction of the level of CD11b mRNA: 42%
[12]; 50 mg/kg po twice/day
  % change compared to vehicle (TGFβ mRNA): −34.7%
  TGFβ mRNA: 0.79
[12]; treatment alone, muscle of mdx mice
  reduction of the TGFβ mRNA level (fraction in words): over a third
[13]
  effect on IL-6 mRNA level: No effects
[14]
  effect on Mpeg1 mRNA level: No effects
[15]
  effect on Ly6C1 mRNA level: No effects

## C[C@]12C=CC(=O)C=C1CC[C@@H]1[C@@H]2[C@@H](O)C[C@@]2(C)[C@H]1CC[C@]2(O)C(=O)CO [Prednisolone, prednisolone]
[1]; 0.2 mg/kg ip once/day
  % change compared to vehicle (CD11b+ myeloid cells): +14.8%
  % of viable cells (CD11b+ myeloid cells): 41.8%
[1]; 1 mg/kg ip once/day
  % change compared to vehicle (CD11b+ myeloid cells): +20.9%
  % of viable cells (CD11b+ myeloid cells): 44%
[2]; 0.2 mg/kg ip once/day
  % change compared to vehicle (CD11b+Ly6Chigh profibrotic myeloid cells): +0.6%
  % of viable cells (CD11b+Ly6Chigh profibrotic myeloid cells): 7.37%
[2]; 1 mg/kg ip once/day
  % change compared to vehicle (CD11b+Ly6Chigh profibrotic myeloid cells): −38.3%
  % of viable cells (CD11b+Ly6Chigh profibrotic myeloid cells): 4.52%
[2]; both doses
  effect on recruitment of profibrotic myeloid cells compared with vehicle: no statistically significant effect
[3]; 0.2 mg/kg ip once/day
  % change compared to vehicle (CD11b+Ly6Clow anti-fibrotic myeloid cells): +0.4%
  % of viable cells (CD11b+Ly6Clow anti-fibrotic myeloid cells): 27.3%
[3]; 1 mg/kg ip once/day
  % change compared to vehicle (CD11b+Ly6Clow anti-fibrotic myeloid cells): +0.7%
  % of viable cells (CD11b+Ly6Clow anti-fibrotic myeloid cells): 27.4%
[3]; both doses
  effect on recruitment of anti-fibrotic myeloid cells compared with vehicle: no statistically significant effect
[7]; 0.2 mg/kg ip once/day
  TNF mRNA level: 0.92
[7]
  effect on the level of TNF mRNA: No significant effect
[8]; 0.2 mg/kg ip once/day
  Lgals3 mRNA level: 1.2
[8]
  effect on the level of Lgals3 mRNA: no significant effect
[9]; 0.2 mg/kg ip once/day
  CD53 mRNA level: 1.33
[9]; [19]
  effect on the level of CD53 mRNA: not significantly affected
[10]; 0.2 mg/kg ip once/day
  CD48 mRNA level: 1
[10]
  effect on the level of CD48 mRNA: no significant effect
[11]; 0.2 mg/kg ip once/day
  CD11b mRNA level: 1.42
[11]; [19]
  effect on the level of CD11b mRNA: not significantly affected
[12]; 0.2 mg/kg ip once/day
  % change compared to vehicle (TGFβ mRNA): 48.8%
  TGFβ mRNA: 1.80
[12]; prednisolone alone, muscle of mdx mice
  effect on the level of TGFβ mRNA: increased
[13]
  effect on IL-6 mRNA level: No effects
[14]
  effect on Mpeg1 mRNA level: No effects
[15]
  effect on Ly6C1 mRNA level: No effects
